# Source: patent publication US20120231140A1, “Organic Compounds” (GIVAUDAN SA, priority 2009, published 2012)
# Test: Sensory analysis of the umami enhancing thresholds in Model Broth by a panel of trained experts
# Format: in vivo
# Settings: Model Broth (MSG, maltodextrin, sodium chloride, yeast extract in water); half-tongue test vs blank broth; geometric mean over panelists; read-out: Umami enhancement threshold concentration in "Model Broth" as calculated for the panel
# Description: Sensory analysis of the umami enhancing thresholds of the compounds isolated from the ACN fraction of heated avocado pulp as described in example 1.
# Water for sensory evaluation was commercially available table water (“Evian®”, Danone, Wiesbaden, Germany).
# “Model Broth” contained monosodium L-glutamate monohydrate (MSG) (1.9 g), maltodextrin (6.375 g), sodium chloride (2.9 g) and yeast extract (2.1 g), in 1000 mL of water.
# 25 mg of each of the compounds listed hereinabove were separately dissolved in 0.2 mL ethanol, then 20.0 mL of model broth was added to each sample. Each sample was then diluted with model broth in 1:1(v/v) steps, until sets of nine solutions with dilution factors of 1, 2, 4, 8, 16, 32, 64, 128, and […] were obtained for each compound.
# The samples were evaluated by a panel of trained experts.
# The following sensorial evaluation procedure was followed for each set of samples containing a different compound of formula (I).
# In a way that avoided any mixing, 1 mL of one of the sample solutions was applied to the left part of each panelists tongue, and 1 mL of Model Broth as a blank value/neutral reference was applied to the right part of the tongue. The panelists were asked to compare the taste on both halves of their tongues. After 5 to 30 seconds the panelists were then asked to rub their tongues against the roof of their mouths. Panelists were then asked if they could distinguish the sample from the blank (Model Broth).
# After each sample, the oral cavity was rinsed with water and a break of 5 to 10 minutes was observed until the stimulus completely disappeared.
# Multiple sample solutions were tested in this way, one after the other in ascending order of concentration, to determine the weakest concentration at which the compounds of formula (I) enhanced the umami taste of the model broth.
# The calculation of the umami enhancement threshold was then performed as described in the literature (ASU: L 00.90-9, 1999), via the geometric mean.
# By “umami enhancement threshold” is meant, the mean concentration at which a compound enhances the umami taste of a model broth.
# For each panelist, the following formula was used to determine the mean umami enhancement threshold:
# E=√{square root over (ce×ce−1)}
# wherein ce is the concentration (in ppm) of the weakest concentration identified as having an umami enhancing effect, Ce−1 is the concentration (in ppm) of the anteceding sample solution and E is the mean umami enhancement threshold.
# To calculate the mean umami enhancement threshold for the panel, the following formula was used: […]
# Wherein n is the number of panelists, Ei is the product of the umami enhancement thresholds calculated for each panelist as specified above.
# The panel calculated mean umami enhancement threshold for each compound is indicated in table1 below.
row,Compound,minimal effective concentration
1,C=CCCCCCCCCCCCC(=O)CC(O)COC(C)=O (centres unmarked) [1-acetoxy-2-hydroxy-4-keto-n-heptadeca-16-en],3.5 µg/mL
2,"C=CCCCCCCCCCCCC(O)CC(O)COC(C)=O (centres unmarked) [1-acetoxy-2,4-dihydroxy-n-heptadeca-16-en]",2.8 µg/mL
3,"CCCCCC=CCC=CCCCCCC=CC(=O)CC(O)COC(C)=O (centres unmarked) [1-acetoxy-2-hydroxy-4-oxo-n-heneicosa-5,12,15-trien]",0.7 µg/mL
4,"CCCCCC=CCC=CCCCCCCCC(=O)CC(O)COC(C)=O (centres unmarked) [1-acetoxy-2-hydroxy-4-oxo-n-heneicosa-12,15-dien]",3.2 µg/mL
5,"CCCCCC=CCC=CCCCCCCCC(O)CC(O)COC(C)=O (centres unmarked) [1-acetoxy-2,4-dihydroxy-n-heneicosa-12,15-dien]",0.7 µg/mL
6,CCCCCC=CCCCCCCCC(=O)CC(O)COC(C)=O (centres unmarked) [1-acetoxy-2-hydroxy-4-keto-n-octadeca-12-en],1.8 µg/mL
7,"C#CCCCCCCCCCCCC(O)CC(O)COC(C)=O (centres unmarked) [1-acetoxy-2,4-dihydroxy-n-heptadeca-16-yne]",1.5 µg/mL
8,CCCCCCCCCCCCCC(=O)CC(O)COC(C)=O (centres unmarked) [1-acetoxy-2-hydroxy-4-keto-n-heptadecane],5.6 µg/mL
